Data from patent publication US5843889A, “Glycopeptide antibiotic derivatives” (Eli Lilly and Company, priority 1997, dated 1998).
≈ marks a conversion by molar mass, not a printed value.

Experiments:
Format in all cases: cell-based
[1] = tested on: Entercoccus faecium 180-1; assay: MIC, standard broth micro-dilution assay
Description: (§1) The MIC's were determined using a standard broth micro-dilution assay.

[2] = tested on: Entercoccus faecium 180; assay: MIC, standard broth micro-dilution assay
Description: as §1

[3] = tested on: Escherichia coli EC14; assay: MIC, standard broth micro-dilution assay
Description: as §1

[4] = tested on: Haemophilus influenzae RD; assay: MIC, standard broth micro-dilution assay
Description: as §1

[5] = tested on: Staphylococcus aureus 446; assay: MIC, standard broth micro-dilution assay
Description: as §1

[6] = tested on: Staphylococcus aureus 447; assay: MIC, standard broth micro-dilution assay
Description: as §1

[7] = tested on: Staphylococcus aureus 489; assay: MIC, standard broth micro-dilution assay
Description: as §1

[8] = tested on: Staphylococcus aureus 491; assay: MIC, standard broth micro-dilution assay
Description: as §1

[9] = tested on: Staphylococcus aureus SA1199A; assay: MIC, standard broth micro-dilution assay
Description: as §1

[10] = tested on: Staphylococcus aureus SA1199; assay: MIC, standard broth micro-dilution assay
Description: as §1

[11] = tested on: Staphylococcus aureus X400; assay: MIC, standard broth micro-dilution assay
Description: as §1

[12] = tested on: Staphylococcus aureus X778; assay: MIC, standard broth micro-dilution assay
Description: as §1

[13] = tested on: Staphylococcus epidermidis 270; assay: MIC, standard broth micro-dilution assay
Description: as §1

[14] = tested on: Staphylococcus haemolyticus 105; assay: MIC, standard broth micro-dilution assay
Description: as §1

[15] = tested on: Staphylococcus haemolyticus 415; assay: MIC, standard broth micro-dilution assay
Description: as §1

[16] = tested on: Streptococcus pneumoniae P1; assay: MIC, standard broth micro-dilution assay
Description: as §1

[17] = tested on: Staphylococcus aureus S13E
Description: as §1

[18] = tested on: Staphylococcus aureus SA1199B
Description: as §1

[19] = tested on: Entercoccus faecalis 2041; assay: MIC, standard broth micro-dilution assay
Description: (§2) The formula I compounds have in vitro and in vivo activity against Gram-positive pathogenic bacteria. The MIC's were determined using a standard broth micro-dilution assay.

[20] = tested on: Entercoccus faecalis 276; assay: MIC, standard broth micro-dilution assay
Description: as §2

[21] = tested on: Entercoccus gallinarum 245; assay: MIC, standard broth micro-dilution assay
Description: as §2

[22] = tested on: Pedicoccus acidilacti; assay: MIC, agar dilution on brain-heart infusion agar; conditions: Pedioccccus acidilacti (mean of 10)
[23] = tested on: Pediococcus pentosaceus; assay: MIC, agar dilution on brain-heart infusion agar; conditions: Pediococcus pentosaceus (mean of 2)
[24] = tested on: Leuconostoc lactis; assay: MIC, agar dilution on brain-heart infusion agar; conditions: Leuconostoc lactis (mean of 2)
[25] = tested on: Leuconostoc mesenteroides; assay: MIC, agar dilution on brain-heart infusion agar; conditions: Leuconostoc mesenteroides (mean of 4)
[26] = tested on: Leuconostoc pseudomesenteroides; assay: MIC, agar dilution on brain-heart infusion agar
[27] = tested on: Lactobacillus confusus; assay: MIC, agar dilution on brain-heart infusion agar

Row | SMILES | MIC [1] [µg/mL] | MIC [2] [µg/mL] | MIC [3] [µg/mL] | MIC [4] [µg/mL] | MIC [5] [µg/mL] | MIC [6] [µg/mL] | MIC [7] [µg/mL] | MIC [8] [µg/mL] | MIC [9] [µg/mL] | MIC [10] [µg/mL] | MIC [11] [µg/mL] | MIC [12] [µg/mL] | MIC [13] [µg/mL] | MIC [14] [µg/mL] | MIC [15] [µg/mL] | MIC [16] [µg/mL] | MIC [18] [µg/mL] | MIC [19] [µg/mL] | MIC [20] [µg/mL] | MIC [21] [µg/mL] | other results
1 | CNC(CC(C)C)C(=O)NC1C(=O)NC(CC(N)=O)C(=O)NC2C(=O)NC3C(=O)NC(C(=O)NC(C(=O)O)c4cc(O)cc(O)c4-c4cc3ccc4O)C(OC3CC(C)(N)C(O)C(C)O3)c3ccc(c(Cl)c3)Oc3cc2cc(c3OC2OC(CO)C(O)C(O)C2OC2CC(C)(NCc3cc(-c4ccccc4)nc4ccc(OC)cc34)C(O)C(C)O2)Oc2ccc(cc2Cl)C1O (stereo not shown) [Compound 45, 4-[2-phenyl-6-methoxy]quinoylmethyl] | ≤ 0.06 | 1 (≈ 0.544 µM) | > 64 | > 64 | 1 (≈ 0.544 µM) | 16 (≈ 8.7 µM) | 0.5 (≈ 0.272 µM) | 1 (≈ 0.544 µM) | ≤ 0.06 | 2 (≈ 1.09 µM) | 0.25 (≈ 0.136 µM) | 0.25 (≈ 0.136 µM) | 8 (≈ 4.35 µM) | 16 (≈ 8.7 µM) | 8 (≈ 4.35 µM) | ≤ 0.06 | 1 (≈ 0.544 µM) | 0.125 (≈ 0.0679 µM) | 0.25 (≈ 0.136 µM) | 0.5 (≈ 0.272 µM) | MIC [17]: 0.5 µg/mL (≈ 0.272 µM)
2 | CNC(CC(C)C)C(=O)NC1C(=O)NC(CC(N)=O)C(=O)NC2C(=O)NC3C(=O)NC(C(=O)NC(C(=O)O)c4cc(O)cc(O)c4-c4cc3ccc4O)C(OC3CC(C)(N)C(O)C(C)O3)c3ccc(c(Cl)c3)Oc3cc2cc(c3OC2OC(CO)C(O)C(O)C2OC2CC(C)(NCc3ccc(C(c4ccccc4)c4ccccc4)cc3)C(O)C(C)O2)Oc2ccc(cc2Cl)C1O (stereo not shown) [Compound 46, 4-diphenylmethylbenzyl] | ≤ 0.06 | 0.5 (≈ 0.27 µM) | > 64 | > 64 | 1 (≈ 0.541 µM) | 2 (≈ 1.08 µM) | 1 (≈ 0.541 µM) | 2 (≈ 1.08 µM) | 0.5 (≈ 0.27 µM) | 2 (≈ 1.08 µM) | 2 (≈ 1.08 µM) | 2 (≈ 1.08 µM) | 2 (≈ 1.08 µM) | 2 (≈ 1.08 µM) | 2 (≈ 1.08 µM) | ≤ 0.06 | 2 (≈ 1.08 µM) | 1 (≈ 0.541 µM) | 0.5 (≈ 0.27 µM) | 0.25 (≈ 0.135 µM) | MIC [17]: 2 µg/mL (≈ 1.08 µM)
3 | CNC(CC(C)C)C(=O)NC1C(=O)NC(CC(N)=O)C(=O)NC2C(=O)NC3C(=O)NC(C(=O)NC(C(=O)O)c4cc(O)cc(O)c4-c4cc3ccc4O)C(OC3CC(C)(N)C(O)C(C)O3)c3ccc(c(Cl)c3)Oc3cc2cc(c3OC2OC(CO)C(O)C(O)C2OC2CC(C)(NCc3ccc(OC(F)(F)F)cc3)C(O)C(C)O2)Oc2ccc(cc2Cl)C1O (stereo not shown) [Compound 6, 4-trifluoromethoxybenzyl] |  |  |  |  |  |  |  |  |  |  |  |  |  |  |  |  |  | ≤ 0.06 |  | ≤ 0.06 | MIC [22]: 4.3 µg/mL (≈ 2.43 µM); MIC [23]: 8.0 µg/mL (≈ 4.53 µM); MIC [24]: 8.0 µg/mL (≈ 4.53 µM); MIC [25]: 9.5 µg/mL (≈ 5.38 µM); MIC [26]: 16 µg/mL (≈ 9.06 µM); MIC [27]: 16 µg/mL (≈ 9.06 µM)
4 | CNC(CC(C)C)C(=O)NC1C(=O)NC(CC(N)=O)C(=O)NC2C(=O)NC3C(=O)NC(C(=O)NC(C(=O)O)c4cc(O)cc(O)c4-c4cc3ccc4O)C(OC3CC(C)(N)C(O)C(C)O3)c3ccc(c(Cl)c3)Oc3cc2cc(c3OC2OC(CO)C(O)C(O)C2OC2CC(C)(NCc3c(O)ccc4ccccc34)C(O)C(C)O2)Oc2ccc(cc2Cl)C1O (stereo not shown) [Compound 44] | ≤ 0.06 | 8 (≈ 4.57 µM) | > 64 | > 64 | 0.25 (≈ 0.143 µM) | 1 (≈ 0.572 µM) | ≤ 0.06 |  | ≤ 0.06 | 0.25 (≈ 0.143 µM) | ≤ 0.06 | ≤ 0.06 | 0.5 (≈ 0.286 µM) | 2 (≈ 1.14 µM) | 4 (≈ 2.29 µM) |  | 0.25 (≈ 0.143 µM) | ≤ 0.06 | 0.125 (≈ 0.0715 µM) | 0.5 (≈ 0.286 µM) | MIC [17]: 0.25 µg/mL (≈ 0.143 µM)
5 | CNC(CC(C)C)C(=O)NC1C(=O)NC(CC(N)=O)C(=O)NC2C(=O)NC3C(=O)NC(C(=O)NC(C(=O)O)c4cc(O)cc(O)c4-c4cc3ccc4O)C(OC3CC(C)(N)C(O)C(C)O3)c3ccc(c(Cl)c3)Oc3cc2cc(c3OC2OC(CO)C(O)C(O)C2OC2CC(C)(NCc3ccc4c(c3)OCO4)C(O)C(C)O2)Oc2ccc(cc2Cl)C1O (stereo not shown) [Compound 48, 3,4-methylenedioxylbenzyl] | ≤ 0.06 | 1 (≈ 0.579 µM) | > 64 | > 64 | 0.125 (≈ 0.0724 µM) | 2 (≈ 1.16 µM) | ≤ 0.06 | 0.25 (≈ 0.145 µM) | ≤ 0.06 | 0.25 (≈ 0.145 µM) | ≤ 0.06 | ≤ 0.06 | 1 (≈ 0.579 µM) | 2 (≈ 1.16 µM) | 8 (≈ 4.63 µM) | ≤ 0.06 | 1 (≈ 0.579 µM) | ≤ 0.06 | ≤ 0.06 | 1 (≈ 0.579 µM) | MIC [17]: ≤ 0.06 µg/mL
6 | CNC(CC(C)C)C(=O)NC1C(=O)NC(CC(N)=O)C(=O)NC2C(=O)NC3C(=O)NC(C(=O)NC(C(=O)O)c4cc(O)cc(O)c4-c4cc3ccc4O)C(OC3CC(C)(N)C(O)C(C)O3)c3ccc(c(Cl)c3)Oc3cc2cc(c3OC2OC(CO)C(O)C(O)C2OC2CC(C)(NCc3cccc(Oc4ccccc4)c3)C(O)C(C)O2)Oc2ccc(cc2Cl)C1O (stereo not shown) [Compound 49, 3-phenoxybenzyl] | ≤ 0.06 | 0.25 (≈ 0.141 µM) | > 64 | > 64 | 0.5 (≈ 0.282 µM) | 1 (≈ 0.563 µM) | ≤ 0.06 | 0.125 (≈ 0.0704 µM) | ≤ 0.06 | 2 (≈ 1.13 µM) | 0.125 (≈ 0.0704 µM) | ≤ 0.06 | 1 (≈ 0.563 µM) | 1 (≈ 0.563 µM) | 1 (≈ 0.563 µM) | ≤ 0.06 | 1 (≈ 0.563 µM) | ≤ 0.06 | 0.25 (≈ 0.141 µM) | 1 (≈ 0.563 µM) | MIC [17]: ≤ 0.06 µg/mL; MIC [22]: 55 µg/mL (≈ 31 µM); MIC [23]: 64 µg/mL (≈ 36.1 µM); MIC [24]: 64 µg/mL (≈ 36.1 µM); MIC [25]: 64 µg/mL (≈ 36.1 µM); MIC [27]: 64 µg/mL (≈ 36.1 µM)
7 | CNC(CC(C)C)C(=O)NC1C(=O)NC(CC(N)=O)C(=O)NC2C(=O)NC3C(=O)NC(C(=O)NC(C(=O)O)c4cc(O)cc(O)c4-c4cc3ccc4O)C(OC3CC(C)(N)C(O)C(C)O3)c3ccc(c(Cl)c3)Oc3cc2cc(c3OC2OC(CO)C(O)C(O)C2OC2CC(C)(NCc3ccc(Cc4ccccc4)cc3)C(O)C(C)O2)Oc2ccc(cc2Cl)C1O (stereo not shown) [Compound 50, 4-benzylbenzyl] | ≤ 0.06 | 0.25 (≈ 0.141 µM) | > 64 | > 64 | 0.5 (≈ 0.282 µM) | 0.5 (≈ 0.282 µM) | ≤ 0.06 | 0.5 (≈ 0.282 µM) | ≤ 0.06 | 1 (≈ 0.564 µM) |  |  | 0.5 (≈ 0.282 µM) | 0.5 (≈ 0.282 µM) | 1 (≈ 0.564 µM) | ≤ 0.06 | 2 (≈ 1.13 µM) | ≤ 0.06 | 0.25 (≈ 0.141 µM) | 1 (≈ 0.564 µM) | MIC [22]: 51 µg/mL (≈ 28.8 µM); MIC [23]: 64 µg/mL (≈ 36.1 µM); MIC [24]: 64 µg/mL (≈ 36.1 µM); MIC [25]: 64 µg/mL (≈ 36.1 µM); MIC [27]: 64 µg/mL (≈ 36.1 µM)
8 | CNC(CC(C)C)C(=O)NC1C(=O)NC(CC(N)=O)C(=O)NC2C(=O)NC3C(=O)NC(C(=O)NC(C(=O)O)c4cc(O)cc(O)c4-c4cc3ccc4O)C(OC3CC(C)(N)C(O)C(C)O3)c3ccc(c(Cl)c3)Oc3cc2cc(c3OC2OC(CO)C(O)C(O)C2OC2CC(C)(NCC3CC=CCC3)C(O)C(C)O2)Oc2ccc(cc2Cl)C1O (stereo not shown) [Compound 47, 3,4 cyclohexenylmethyl] | ≤ 0.06 | 2 (≈ 1.19 µM) | > 64 | > 64 | 0.125 (≈ 0.0741 µM) | 2 (≈ 1.19 µM) | ≤ 0.06 | 0.5 (≈ 0.296 µM) | 0.25 (≈ 0.148 µM) | 0.5 (≈ 0.296 µM) | ≤ 0.06 | ≤ 0.06 | 1 (≈ 0.593 µM) | 4 (≈ 2.37 µM) | 16 (≈ 9.49 µM) | ≤ 0.06 | 0.25 (≈ 0.148 µM) | ≤ 0.06 | ≤ 0.06 | 16 (≈ 9.49 µM) | MIC [17]: ≤ 0.06 µg/mL
